Reference: US6046238A, “Method for treating or preventing the spread of acne vulgaris” (TriStrata, Inc., priority 1999, dated 2000)
Converted amounts (≈) assume the structure as drawn. Where two headings read alike, the source gives them in different places.

Tests used:
[1] = system: Staphylococcus epidermidis; assay: MIC Agar Dilution Test, Staphylococcus epidermidis; type: cell-based; details: S. epidermidis
Excerpt: (§1) The following strains of microorganisms were used in Minimum Inhibitory Concentration (MIC) tests for phenyl 2-acetoxyethanoic acid in this example and for benzoyl peroxide, chlorhexidine gluconate and triclosan in the following examples. In total, five strains were used for S. aureus, five strains were used for S. epidermidis, two strains were used for M. sedentarius, three strains were used for M. luteus, two strains were used for B. epidermis, three strains were used for C. minutissium, one strain was used for S. marcescens, three strains were used for P. aeruginosa, four strains were used for E. coli, and thirty-two strains were used for P. acnes.
(§2) Antimicrobial effects were determined based on MIC Agar Dilution Test utilizing Trypticase Soy Agar II (BBL) incorporation plates with and without 10% intralipid (Kabi Pharmacia Inc.). Initially, phenyl 2-acetoxyethanoic acid was prepared as a 2 mg/ml (0.2%) solution in water. This solution with serial dilution was incorporated into the test agar plates. The MIC test gave similar results when the same species but a different strain was used.
(§3) Under the same test conditions described in Example 1, benzoyl peroxide was prepared as a 2.5 mg/ml (0.25%) solution in water. This solution with serial dilution was incorporated into the test agar plates. Typical test results are shown as follows.
(§4) Under the same test conditions described in Example 1, chlorhexidine gluconate was prepared as a 2 mg/ml (0.2%) solution in water. This solution with serial dilution was incorporated into the test agar plates. Typical test results are shown as follows.
(§5) Under the same test conditions described in Example 1, triclosan was prepared as a 10 mg/ml (1%) solution in water. This solution with serial dilution was incorporated into the test agar plates. Typical test results are shown as follows.
(§6) Ten different species of bacteria were used in Minimum Inhibitory Concentration (MIC) tests. The bacteria include S. aureus, S. epidermidis,M. sedentarius, M. luteus, B. epidermis, C. minutissium, S. marcescens, P. aeruginosa, E. coli, and P. acnes. In addition various sources and strains of these bacteria were also included in the tests, and up to 32 different strains of P. acnes were used.
(§7) The test substance selected from phenyl 2-acetoxyethanoic acid, benzoyl peroxide, chlorhexidine gluconate and triclosan was dissolved in water, and the solution with serial dilution was incorporated into the test agar plates. The plates containing different concentrations of test substance were inoculated with a strain of bacterium. MIC is defined as the lowest concentration of the test substance in the plate in which there is no growth of the microorganism.

[2] = system: Micrococcus sedentarius; assay: MIC Agar Dilution Test, Micrococcus sedentarius; type: cell-based; details: Kytococcus sedentarius, M. sedentarius
Excerpt: as §1, §2, §3, §4, §5, §6, §7

[3] = system: Brevibacterium epidermis; assay: MIC Agar Dilution Test, Brevibacterium epidermis; type: cell-based; details: B. epidermis
Excerpt: as §1, §2, §3, §4, §5, §6, §7

[4] = system: Corynebacterium minutissium; assay: MIC Agar Dilution Test, Corynebacterium minutissium; type: cell-based; details: C. minutissium
Excerpt: as §1, §2, §3, §4, §5, §6, §7

[5] = system: Serratia marcescens; assay: MIC Agar Dilution Test, Serratia marcescens; type: cell-based; details: S. marcescens
Excerpt: as §1, §2, §3, §4, §5, §6, §7

[6] = system: ten different species of bacteria; assay: MIC Agar Dilution Test, panel of ten bacteria; type: cell-based; details: with or without 10% lipid materials
Excerpt: as §1, §2, §3, §4, §5
In order to determine the antimicrobial effect of an aryl 2-acetoxyethanoicacid, a standard test method of Minimum Inhibitory Concentration (MIC) against the growth of 10 bacteria was used. To determine a prophylactic effect against the development of, as well as a topical effect in the treatment of, body foul door, eleven human subjects participated in this study. More than twenty human subjects participated in a study to determine whether the compositions containing an aryl 2-acetoxyethanoic acid were therapeutically effective for topical treatment of folliculitis and other skin lesions, nail infections and mucosal infections caused by microbial infections. Scientific and test results are overviewed as follows.
as §6, §7

[7] = treatment of oral infections; type: in vivo, human; details: 2% composition diluted to 0.1%; oral rinse twice daily
Description: Compositions for treatment of oral infections may contain an aryl 2-acetoxyethanoic acid as the only active ingredient. In this case a phenyl 2-acetoxyethanoic acid or diphenyl 2-acetoxyethanoic acid 2% composition was formulated by dissolving the active ingredient 2 g in ethanol 78 ml and propylene glycol 20 ml. Before use, this composition was diluted to 0.1% with water by mixing one part of the composition with 19 parts of water. The treatment involves oral rinse, wash and gargle by keeping the diluted composition inside the oral cavity for a few minutes, and then spit out. Such procedure may be repeated twice daily for several days until the infection is eradicated usually within 5-7 days.

[8] = reversal of corticosteroid unresponsiveness in psoriasis; type: in vivo, human; details: added once daily to corticosteroid twice daily; seven patients
Description: To determine the therapeutic responsive effect of an aryl 2-acetoxyethanoicacid against psoriasis seven patient participated in this study. A test composition was prepared by dissolving 1 g phenyl 2-acetoxyethanoic acid or diphenyl 2-acetoxyethanoic acid in 2 ml ethanol. The solution thus obtained was mixed with 60 g petrolatum and 37 g mineral oil. The anhydrous ointment thus formulated was packaged in one-ounce jars.
When the drug unresponsiveness to a corticosteroid occurred, the participating patients were instructed to apply in addition the test composition once daily to the lesions on the left side of the body only. Topical applications of the corticosteroid were continued twice daily to both sides of the body. […] While psoriatic lesions on the right side of the body remained unresponsive to the topical corticosteroid, the lesions on the left side started to clear after 3 to 4 weeks of additional topical application with the composition containing an aryl 2-acetoxyethanoic acid.
At this time the patients were instructed to shift the additional topical application to the lesions on the right side instead of the left side of the body. The psoriatic lesions on the right side of the body began to clear after 3 to 4 weeks of additional topical application with the composition containing aryl 2-acetoxyethanoic acid.

[9] = 10% intralipid, read-out: MIC Lipid
[10] = no lipid, read-out: MIC No Lipid

## CC(=O)OC(C(=O)O)c1ccccc1 (centres unmarked) [phenyl 2-acetoxyethanoic acid]
[1]; [9]
  MIC: 1000 µg/mL (≈ 5.15 mM)
[1]; [10]
  MIC: 1000 µg/mL (≈ 5.15 mM)
[2]; [9]
  MIC: 500 µg/mL (≈ 2.57 mM)
[2]; [10]
  MIC: 500 µg/mL (≈ 2.57 mM)
[3]; [9]
  MIC: 1000 µg/mL (≈ 5.15 mM)
[3]; [10]
  MIC: 1000 µg/mL (≈ 5.15 mM)
[4]; [9]
  MIC: 500 µg/mL (≈ 2.57 mM)
[4]; [10]
  MIC: 500 µg/mL (≈ 2.57 mM)
[5]; [9]
  MIC: 1000 µg/mL (≈ 5.15 mM)
[5]; [10]
  MIC: 1000 µg/mL (≈ 5.15 mM)
[6]
  inhibitory effects against the growth of all ten bacteria: had inhibitory effects against all of the above bacteria
[6]; listed as Phenyl 2-acetoxyethanoic acid
  inhibitory effects against the growth of all ten bacteria: showed inhibitory effects against the growth of all ten bacteria tested
[7]
  time within which oral infection is usually eradicated: 5 to 7 days
[8]
  onset of improvement of psoriatic lesions, left side: began to improve after one week
